Data on 32 compounds can be found in US9926276B2, “Substituted benzamides with activity towards EP4 receptors” (DRACONIS PHARMA, S.L., priority 2013, dated 2018).

Molecules are shown by their SMILES. Where only a bound is given, the exact number is not on record here.

For assay [1], the target named is T1, human EP4 receptor (Homo sapiens, UniProt P35408). The assay can be described thus: Human EP4 receptor radioligand binding assay (Test 1). Details: expressed in transfected cells; host or cells: HEK-293 cell membranes. Particulars: [3H]-PGE2 1 nM, transfected HEK-293 cell membranes; for inhibition at 10 µM: read-out: Results of Test 1 (Binding assay, % inh); for Results of Test 1 (Binding assay, % inh): at 10 μM. As to the method:
Test 1: Human EP4 Receptor Radioligand Binding Assay
To investigate binding properties of EP4 receptor ligands to human EP4 receptor, transfected HEK-293 cell membranes and [3H]-PGE2 (Perkin Elmer) were used. In 96-well plates the assay was carried out with a total reaction volume of 250 μl, containing 25 μl of membrane suspension (30 μg protein/well), 25 μl of [3H]-PGE2 (1 nM) in either absence or presence of 25 μl of either buffer or PGE2 (10 μM) for total and non-specific binding, respectively. Binding buffer contained 25 mM MES, 10 mM MgCl2 and 1 mM EDTA at pH 6.0. Plates were incubated at 25° C. for 120 minutes. After the incubation period, 200 μl of incubate were transferred to MultiScreen HTS, FB plates (Millipore), filtered and plates were washed 6 times with ice-cold 10 mM MES, 0.01% BSA at pH 6.0. Filters were dried and counted in a MicroBeta scintillation counter (Perkin-Elmer) using EcoScint liquid scintillation cocktail.
Percentage inhibition was calculated relating compounds activity to the 0% inhibition of the wells incubated with 1 nM [3H]-PGE2 alone (total binding) and 100% inhibition of the wells incubated with 1 nM [3H]-PGE2 plus 10 μM PGE2 (non-specific binding).

For assay [2], the target named is T1, human EP4 receptor. The experiment in a line: Measurement of cAMP responses by Homogeneous Time Resolved Fluorescence (Test 2). It counts as cell-based. Particulars: at 10 μM; PGE2 1 nM, HEK-293 cells stably expressing human EP4. Also noted: expressed in transfected cells. As to the method:
Test 2: Measurement of cAMP Responses by Homogeneous Time Resolved Fluorescence
cAMP measurements on HEK-293 cells that stably expressed human EP4 receptors were performed by using a system based on Homogeneous Time Resolved Fluorescense (HTRF). This technology allows the direct measurement of cAMP in living cells. The principle of this assay is based on competition between cAMP produced by cells and cAMP-d2 conjugate for the binding with monoclonal anti-cAMP-cryptate conjugate. The HTRF cAMP kit from CisBio was used according to the manufacturer's directions. The experimental procedure was performed as stated below.
Suspended cells (30,000 cells per well) were added to 96-well culture plates in 30 μl of Optimem supplemented with 500 μM IBMX. Compounds were then added in 10 μl of stimulation buffer and incubated at 25° C. for 30 minutes followed by 10 μl of PGE2 to a final concentration of 1 nM. After 30 minutes at 25° C., the reaction was stopped lysing the cells with a mixture of 25 μl of cryptate and 25 μl of cAMP-d2 prepared in the lysis buffer supplied by the manufacturer. Plates were incubated for an additional hour at room temperature and read at 665 nm/620 nm using an UltraEvolution Plate reader (Tecan).
Antagonist percentage inhibition was calculated relating compounds activity to the 0% inhibition of the wells incubated with 1 nM PGE2 alone and 100% inhibition of the wells incubated with 1 nM PGE2 plus 1 μM of the reference antagonist.

T1 sequence (P35408 whole entry): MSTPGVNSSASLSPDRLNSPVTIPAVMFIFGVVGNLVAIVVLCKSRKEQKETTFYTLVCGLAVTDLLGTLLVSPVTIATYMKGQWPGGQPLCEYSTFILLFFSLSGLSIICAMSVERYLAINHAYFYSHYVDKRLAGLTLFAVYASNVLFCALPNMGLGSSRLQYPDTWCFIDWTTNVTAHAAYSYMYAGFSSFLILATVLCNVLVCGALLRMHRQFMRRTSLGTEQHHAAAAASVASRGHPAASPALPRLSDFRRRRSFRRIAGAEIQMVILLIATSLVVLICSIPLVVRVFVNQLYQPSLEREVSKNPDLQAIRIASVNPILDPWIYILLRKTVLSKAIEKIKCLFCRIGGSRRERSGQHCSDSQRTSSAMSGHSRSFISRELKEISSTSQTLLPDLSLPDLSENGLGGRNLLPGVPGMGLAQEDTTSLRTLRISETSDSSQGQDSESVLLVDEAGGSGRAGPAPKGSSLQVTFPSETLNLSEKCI

With `O=C(O)c1cc(Cl)c(NC(=O)c2nc(NCC3CC3)ccc2Cl)c(Cl)c1` [Example 50, 3,5-Dichloro-4-(3-chloro-6-(cyclopropylmethylamino)picolinamido)benzoic acid], the inhibition at 10 µM on human EP4 receptor [1] was more than 75%.

For `O=C(O)c1cc(Cl)c(NC(=O)c2cc(OCC3CCC3)ccc2Cl)c(Cl)c1` [Example 32, 3,5-Dichloro-4-(2-chloro-5-(cyclobutylmethoxy)benzamido)benzoic acid], the inhibition at 10 µM on human EP4 receptor [1] was more than 75%.

For `O=C(O)c1cc(Cl)c(NC(=O)c2cc(Cc3ccccc3)ccc2Cl)c(Cl)c1` [Example 62, 4-(5-Benzyl-2-chlorobenzamido)-3,5-dichlorobenzoic acid], the inhibition at 10 µM on human EP4 receptor [1] is more than 75%.

Take `Cc1ccc(-c2cccc(CO)c2)cc1C(=O)Nc1c(Cl)cc(C(=O)O)cc1Cl` [Example 6, 3,5-Dichloro-4-(3′-(hydroxymethyl)-4-methylbiphenyl-3-ylcarboxamido)benzoic acid]: the “Results of Test 2 (Functional assay, antagonist % inh)” value at human EP4 receptor [2] is “$ (% inh >75)”. In addition, the “Results of Test 1 (Binding assay, % inh)” value on human EP4 receptor [1] is recorded as “# (% inh >75)”.

`Cc1ccc(C(=O)O)cc1NC(=O)c1cc(OCc2ccccc2)ccc1Cl` [Example 71, Sodium 3-(5-(benzyloxy)-2-chlorobenzamido)-4-methylbenzoate]: the inhibition at 10 µM at human EP4 receptor [1] was more than 75%.

As to `Cc1ccc(C(=O)O)cc1NC(=O)c1cc(-c2cccc(Cl)c2)ccc1C` [Example 38, 3-(3′-Chloro-4-methylbiphenyl-3-ylcarboxamido)-4-methylbenzoic acid], the “Results of Test 2 (Functional assay, antagonist % inh)” value on human EP4 receptor [2] is recorded as “$ (% inh >75)”. Besides, the “Results of Test 1 (Binding assay, % inh)” value at human EP4 receptor [1] is on record as “# (% inh >75)”.

Consider `O=C(O)c1cc(Cl)c(NC(=O)c2cc(OCc3ccccc3)ccc2Cl)c(Cl)c1` [Example 29, 4-(5-(Benzyloxy)-2-chlorobenzamido)-3,5-dichlorobenzoic acid], for which, at human EP4 receptor [1], the inhibition at 10 µM is more than 75%.

In the case of `CC(C)COc1ccc(Cl)c(C(=O)N(CC(C)C)c2c(Cl)cc(C(=O)O)cc2Cl)c1` [Example 67, 3,5-Dichloro-4-(2-chloro-5-isobutoxy-N-isobutylbenzamido)benzoic acid], on human EP4 receptor [1], the inhibition at 10 µM is more than 75%.

With `CC(C)COc1ccc(Cl)c(C(=O)Nc2c(Cl)cc(C(=O)O)cc2Cl)n1` [Example 49, 3,5-Dichloro-4-(3-chloro-6-isobutoxypicolinamido)benzoic acid], the inhibition at 10 µM at human EP4 receptor [1] was more than 75%.

`CC(C)Oc1ccc(Cl)c(C(=O)Nc2c(Cl)cc(C(=O)O)cc2Cl)c1` [Example 30, 3,5-Dichloro-4-(2-chloro-5-isopropoxybenzamido)benzoic acid]: the inhibition at 10 µM at human EP4 receptor [1] was more than 75%.

`Cc1cc(C(=O)O)cc(Cl)c1NC(=O)c1cc(OCC(C)C)ccc1Cl` [Example 27, 3-Chloro-4-(2-chloro-5-isobutoxybenzamido)-5-methylbenzoic acid]: the inhibition at 10 µM on human EP4 receptor [1] was more than 75%.

Consider `CCOc1ccc(Cl)c(C(=O)Nc2c(Cl)cc(C(=O)O)cc2Cl)c1` [Example 33, 3,5-Dichloro-4-(2-chloro-5-ethoxybenzamido)benzoic acid], for which, at human EP4 receptor [1], the inhibition at 10 µM is more than 75%.

For `CCN(CC)c1ccc(Cl)c(C(=O)Nc2c(Cl)cc(C(=O)O)cc2Cl)n1` [Example 55, 3,5-Dichloro-4-(3-chloro-6-(diethylamino)picolinamido)benzoic acid], the inhibition at 10 µM on human EP4 receptor [1] is more than 75%.

Turning to `CCCCN(C)c1ccc(Cl)c(C(=O)Nc2c(Cl)cc(C(=O)O)cc2Cl)n1` [Example 54, 4-(6-(Butyl(methyl)amino)-3-chloropicolinamido)-3,5-dichlorobenzoic acid], the inhibition at 10 µM at human EP4 receptor [1] is more than 75%.

For the compound `Cc1ccc(C(=O)O)cc1NC(=O)c1cc(OCC(C)C)ccc1Cl` [Example 44, 3-(2-Chloro-5-isobutoxybenzamido)-4-methylbenzoic acid], at human EP4 receptor [1], the inhibition at 10 µM is more than 75%.

On to `Cc1ccc(C(=O)O)cc1NC(=O)c1cc(-c2cccc(Cl)c2)ccc1Cl` [Example 40, 3-(3′,4-Dichlorobiphenyl-3-ylcarboxamido)-4-methylbenzoic acid], for which, on human EP4 receptor [1], the “Results of Test 1 (Binding assay, % inh)” value is “# (% inh >75)”.

Consider `Cc1ccc(CC2CCCCC2)cc1C(=O)Nc1c(Cl)cc(C(=O)O)cc1Cl` [Example 61, 3,5-Dichloro-4-(5-(cyclohexylmethyl)-2-methylbenzamido)benzoic acid], for which the inhibition at 10 µM at human EP4 receptor [1] is more than 75%.

Take `Cc1ccc(C(=O)O)cc1NC(=O)c1cc(-c2nccc(C(F)(F)F)n2)ccc1Cl` [Example 43, 3-(2-Chloro-5-(4-(trifluoromethyl)pyrimidin-2-yl)benzamido)-4-methylbenzoic acid]: the inhibition at 10 µM on human EP4 receptor [1] was more than 75%.

`CC(C)(C)COc1ccc(Cl)c(C(=O)Nc2c(Cl)cc(C(=O)O)cc2Cl)c1` [Example 34, 3,5-Dichloro-4-(2-chloro-5-(neopentyloxy)benzamido)benzoic acid]: at human EP4 receptor [1], the inhibition at 10 µM was more than 75%.

Turning to `CC(C)Cc1ccc(Cl)c(C(=O)Nc2c(Cl)cc(C(=O)O)cc2Cl)c1` [Example 63, 3,5-Dichloro-4-(2-chloro-5-isobutylbenzamido)-benzoic acid], the inhibition at 10 µM at human EP4 receptor [1] was more than 75%.

As to `COc1cc(C(=O)O)ccc1NC(=O)c1cc(OCC(C)C)ccc1Cl` [Example 28, 4-(2-Chloro-5-isobutoxybenzamido)-3-methoxybenzoic acid], the inhibition at 10 µM on human EP4 receptor [1] was more than 75%.

Turning to `O=C(O)c1ccc(Cl)c(NC(=O)c2cc(-c3cccc(Cl)c3)ccc2Cl)c1` [Example 41, 4-Chloro-3-(3′,4-dichlorobiphenyl-3-ylcarboxamido)benzoic acid], the “Results of Test 1 (Binding assay, % inh)” value at human EP4 receptor [1] is “# (% inh >75)”.

On to `O=C(O)c1cc(Cl)c(NC(=O)c2nc(NC3CCCC3)ccc2Cl)c(Cl)c1` [Example 51, 3,5-Dichloro-4-(3-chloro-6-(cyclopentylamino)picolinamido)benzoic acid], for which, on human EP4 receptor [1], the inhibition at 10 µM was more than 75%.

Turning to `CCN(C(=O)c1cc(OCc2ccc(Cl)cc2F)ccc1Cl)c1c(Cl)cc(C(=O)O)cc1Cl` [Example 70, 3,5-Dichloro-4-(2-chloro-5-(4-chloro-2-fluorobenzyloxy)-N-ethylbenzamido)benzoic acid], the inhibition at 10 µM at human EP4 receptor [1] was more than 75%.

`COc1ccc(Cl)c(C(=O)Nc2c(Cl)cc(C(=O)O)cc2Cl)c1` [Example 31, 3,5-Dichloro-4-(2-chloro-5-methoxybenzamido)benzoic acid]: the inhibition at 10 µM at human EP4 receptor [1] was more than 75%.

With `CCN(C(=O)c1cc(OCc2ccc(F)cc2F)ccc1Cl)c1c(Cl)cc(C(=O)O)cc1Cl` [Example 69, 3,5-Dichloro-4-(2-chloro-5-(2,4-difluorobenzyloxy)-N-ethylbenzamido)benzoic acid], the inhibition at 10 µM on human EP4 receptor [1] was more than 75%.

Take `O=C(Nc1c(F)c(F)c(C(=O)O)c(F)c1F)c1cc(OCc2ccc(F)cc2F)ccc1Cl` [Example 37, 4-(2-Chloro-5-(2,4-difluorobenzyloxy)benzamido)-2,3,5,6-tetrafluorobenzoic acid]: the inhibition at 10 µM at human EP4 receptor [1] fell in the range of 45 to 75%.

In the case of `Cc1c(NC(=O)c2cc(-c3cccc(Cl)c3)ccc2Cl)cccc1C(=O)O` [Example 39, 3-(3′,4-Dichlorobiphenyl-3-ylcarboxamido)-2-methylbenzoic acid], the “Results of Test 1 (Binding assay, % inh)” value on human EP4 receptor [1] is “# (% inh >75)”.

With `COCCN(C)c1ccc(Cl)c(C(=O)Nc2c(Cl)cc(C(=O)O)cc2Cl)n1` [Example 53, 3,5-Dichloro-4-(3-chloro-6-((2-methoxyethyl)(methyl)amino)-picolinamido)benzoic acid], the inhibition at 10 µM on human EP4 receptor [1] is more than 75%.

For the compound `CC(C)COc1ccc(Cl)c(C(=O)Nc2ccc(C(=O)O)cc2Cl)c1` [Example 26, 3-Chloro-4-(2-chloro-5-isobutoxybenzamido)benzoic acid], on human EP4 receptor [1], the inhibition at 10 µM is more than 75%.

For `CCN(C(=O)c1cc(OCC(C)C)ccc1Cl)c1c(Cl)cc(C(=O)O)cc1Cl` [Example 66, 3,5-Dichloro-4-(2-chloro-5-isobutoxy-N-ethylbenzamido)benzoic acid], the inhibition at 10 µM on human EP4 receptor [1] is more than 75%.

On to `CCCNc1ccc(Cl)c(C(=O)Nc2c(Cl)cc(C(=O)O)cc2Cl)n1` [Example 56, 3,5-Dichloro-4-(3-chloro-6-(propylamino)picolinamido)benzoic acid], for which the inhibition at 10 µM at human EP4 receptor [1] is more than 75%.
